Experimental data as given in the supplement of paper PMC10307832.

Experiments:
Test in all cases: relative viability (nuclei count vs DMSO), 5 days (fraction); higher = more cells survive
Crenolanib + Linsitinib = compound: CC1(COc2ccc3c(c2)ncn3-c2ccc3cccc(N4CCC(N)CC4)c3n2)COC1 [Crenolanib] + C[C@]1(O)C[C@@H](c2nc(-c3ccc4ccc(-c5ccccc5)nc4c3)c3c(N)nccn32)C1 [Linsitinib] (partner 1 µM)
Procedure, shortened: (§1)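 Lung cancer cell lines were pin-tool dosed in 1536-well plates on the day after seeding, with either a lone drug or a fixed anchor-drug dose plus five library-drug doses (not always all listed) in √10 steps. Nuclei were counted on 4× images after 5 days. Relative viability is the ratio of treated-well to vehicle-well nuclei counts, with each value a median of duplicate plates.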

Crenolanib + Dasatinib = compound: CC1(COc2ccc3c(c2)ncn3-c2ccc3cccc(N4CCC(N)CC4)c3n2)COC1 [Crenolanib] + Cc1nc(Nc2ncc(C(=O)Nc3c(C)cccc3Cl)s2)cc(N2CCN(CCO)CC2)n1 [Dasatinib] (partner 0.075 µM)
Procedure, shortened: as §1

Crenolanib + Pemetrexed = compound: CC1(COc2ccc3c(c2)ncn3-c2ccc3cccc(N4CCC(N)CC4)c3n2)COC1 [Crenolanib] + Nc1nc2[nH]cc(CCc3ccc(C(=O)N[C@@H](CCC(=O)O)C(=O)O)cc3)c2c(=O)[nH]1 [Pemetrexed] (partner 0.2 µM)
Procedure, shortened: as §1

Tivantinib + Lapatinib = compound: O=C1NC(=O)[C@@H](c2cn3c4c(cccc24)CCC3)[C@@H]1c1c[nH]c2ccccc12 [Tivantinib] + CS(=O)(=O)CCNCc1ccc(-c2ccc3ncnc(Nc4ccc(OCc5cccc(F)c5)c(Cl)c4)c3c2)o1 [Lapatinib] (partner 2 µM)
Procedure, shortened: as §1

Cell Line	relative viability (Crenolanib + Linsitinib; first compound 0.01 µM)	relative viability (Crenolanib + Linsitinib; first compound 0.03162 µM)	relative viability (Crenolanib + Linsitinib; first compound 0.1 µM)	relative viability (Crenolanib + Linsitinib; first compound 0.3162 µM)	relative viability (Crenolanib + Linsitinib; first compound 1 µM)	relative viability (Crenolanib + Dasatinib; first compound 0.01 µM)	relative viability (Crenolanib + Dasatinib; first compound 0.03162 µM)	relative viability (Crenolanib + Dasatinib; first compound 0.1 µM)	relative viability (Crenolanib + Dasatinib; first compound 0.3162 µM)	relative viability (Crenolanib + Dasatinib; first compound 1 µM)	relative viability (Crenolanib + Pemetrexed; first compound 0.01 µM)	relative viability (Crenolanib + Pemetrexed; first compound 0.03162 µM)	relative viability (Crenolanib + Pemetrexed; first compound 0.1 µM)	relative viability (Crenolanib + Pemetrexed; first compound 0.3162 µM)	relative viability (Crenolanib + Pemetrexed; first compound 1 µM)	relative viability (Tivantinib + Lapatinib; first compound 0.01 µM)	relative viability (Tivantinib + Lapatinib; first compound 0.1 µM)	relative viability (Tivantinib + Lapatinib; first compound 0.3162 µM)	relative viability (Tivantinib + Lapatinib; first compound 0.03162 µM)
LK-2	0.675	0.626	0.624	0.425	0.562	0.378	0.253	0.382	0.231	0.249	0.314	0.268	0.263	0.27	0.274	0.955	0.841	0.872	
NCI-H2228	0.762	0.591	0.565	0.691	0.729	0.488	0.555	0.519	0.46	0.518	0.3	0.33	0.34	0.337	0.324	1.12	1.07	0.676	1.08
NCI-H322M	0.944	0.923	0.884	0.935	0.975	0.241	0.258	0.255	0.251	0.303	0.597	0.583	0.631	0.6	0.605	0.568	0.609	0.588	0.488
NCI-H1993	0.771	0.757	0.724	0.649	0.705	0.621	0.63	0.588	0.623	0.429	0.606	0.591	0.549	0.559	0.544	0.94	0.706	0.852	0.74
NCI-H1944	1.18	1.15	1.21	1.32	1.17	0.255	0.234	0.213	0.211	0.168	0.735	0.646	0.562	0.837	0.542	0.832	0.895	0.906	0.742
LXF-289	0.974	1.02	0.955	1.02	0.972	0.194	0.228	0.253	0.237	0.229	0.853	0.905	0.865	0.922	0.897	0.925	0.858	0.968	0.861
NCI-H2405	1.15	0.923	0.661	0.794	0.859	0.225	0.214		0.181	0.196	1.11		0.869	1.11	1.06	1.11	1.06	1.08	1.13
NCI-H2023	0.669	0.678	0.626	0.801	0.621	0.656	0.603	0.669	0.743	0.567	0.206	0.238	0.231	0.239	0.234	0.884	0.703	0.577	0.735
NCI-H1299	0.995	0.912	0.946	1.01	0.958											0.967	0.988	0.924	0.952
ABC-1	0.79	0.797	0.946	1.19	1.04	0.566	0.718	0.538	0.608	0.564							1.17	0.869	1.13
LCLC-103H	1.09	0.989	1.08	1.08	0.988	0.444	0.454	0.477	0.457	0.428	0.453	0.45	0.476	0.503	0.48				
IA-LM	0.717	0.558	0.605	0.841	0.834											0.871	0.669	0.771	0.882
ChaGo-K-1						0.6	0.579	0.617	0.585	0.604	0.26	0.256	0.255	0.253	0.27				
NCI-H1703	0.566	0.645	0.574	0.285	0.154											1.3	1.06	1.06	0.94
NCI-H1648											0.742		0.821	0.699	0.716				
NCI-H727	0.285	0.245	0.284	0.327	0.389	0.348	0.364	0.338	0.347	0.49						0.824	0.802		0.689
NCI-H1650						0.301	0.338	0.29	0.285	0.32	0.438	0.395	0.38	0.371	0.459	0.879	0.702	0.861	0.547
A549	0.674	0.598	0.529	0.69	0.533											1	0.911	0.935	1.02
NCI-H522						0.987	1.01	0.899	0.854	0.975	0.976	1.19	1.06	1.06	0.738				
NCI-H441	0.555	0.508	0.46	0.484	0.509	0.555	0.669	0.601	0.681	0.578	0.261	0.278	0.269	0.312	0.273				
NCI-H2170						0.697	0.569	0.591	0.598	0.641	0.366	0.266	0.276	0.286	0.271	0.157	0.277		0.252
NCI-H1623						0.55	0.515	0.548	0.558	0.504									
SW 900						0.719	0.725	0.595	0.581	0.404	0.502		0.48	0.509	0.484				
EBC-1	0.946	0.832	0.85	0.978	0.996											0.205	0.194	0.201	0.248
